In US5436254A, “Carbostyril derivatives” (Otsuka Pharmaceutical Company, Ltd., priority 1989, dated 1995):
Like-named read-outs stand apart in the source and are kept apart here.

Target: V1 receptor (Rattus norvegicus, UniProt P30560)
Assay: biochemical
Type: binding
[1] = [H]3-Arg-vasopressin 2×10^-10 M, rat liver plasma membrane, 37° C., 10 minutes, pH 8.0, read-out: IC50

Sequence of V1 receptor (P30560 whole entry): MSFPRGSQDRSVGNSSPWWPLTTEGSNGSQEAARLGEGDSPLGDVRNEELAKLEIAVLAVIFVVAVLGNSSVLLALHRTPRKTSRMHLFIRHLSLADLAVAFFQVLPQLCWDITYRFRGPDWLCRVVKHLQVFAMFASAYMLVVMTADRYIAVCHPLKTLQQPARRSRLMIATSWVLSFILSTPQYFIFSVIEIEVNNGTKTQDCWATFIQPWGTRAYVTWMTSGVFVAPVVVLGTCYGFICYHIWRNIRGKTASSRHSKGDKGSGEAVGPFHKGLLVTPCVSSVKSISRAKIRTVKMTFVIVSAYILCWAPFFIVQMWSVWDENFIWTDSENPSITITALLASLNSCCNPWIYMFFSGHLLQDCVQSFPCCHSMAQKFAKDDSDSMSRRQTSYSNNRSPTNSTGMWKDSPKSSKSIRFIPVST
Experimental: Experiment 1: V1 receptor binding assay
Using rat liver plasma membrane preparations prepared according to Ichihara's method [cf: Akira Ichihara, J. Bio. Chem., 258 9283 (1983)], the plasma membrane (50000 dpm, 2×10^-10 M) of [H]^3 -Arg-vasopressin and a test compound (100 ng, 10^-7 -10^-4 M) are incubated at 37° C. for 10 minutes in 100 mM Tris-HCl buffer pH: 8.0 (250 μl) containing 5 mM MgCl2, 1 mM EDTA and 0.1% BSA. After incubation, the mixture is filtered three times using the glass filter (GF/F) so as to separate the membrane preparation combining with vasopressin and then washed with the buffer (5 ml). This glass filter is taken out and mixed with liquid scintillation cocktail. The amount of [H]^3 -vasopressin combining with the membrane is measured by liquid scintillation counter and the rate of the inhibitory effect of the test compound is estimated according to the following equation. [formula] C^1 : The amount of [H]^3 -vasopressin combining with the membrane in the presence of the test compound (known amount).
C^0 : The amount of [H]^3 -vasopressin combining with the membrane in the absence of the test compound.
B^1 : The amount of [H]^3 -vasopressin combining with the membrane in the presence of the excess amount of vasopressin (10^-6 M).

Compound | IC50 [nM] | also measured
CCNc1cc(OC)ccc1C(=O)N1CCC(N2C(=O)CCc3ccccc32)CC1 [Example 56, 1-[1-(2-Ethylamino-4-methoxybenzoyl)-4-piperidinyl]-3,4-dihydrocarbostyril] | 330 | –
CCCNc1cc(OC)ccc1C(=O)N1CCC(N2C(=O)CCc3ccccc32)CC1 [Example 57, 1-[1-(2-Propylamino-4-methoxybenzoyl)-4-piperidinyl]-3,4-dihydrocarbostyril] | 270 | –
CCN(C)c1cc(OC)ccc1C(=O)N1CCC(N2C(=O)CCc3ccccc32)CC1 [Example 58, 1-{1-[2-(N-Methyl-N-ethylamino)-4-methoxybenzoyl]-4-piperidinyl}-3,4-dihydrocarbostyril] | 450 | –
CCOc1cc(OC)ccc1C(=O)N1CCC(N2C(=O)CCc3ccccc32)CC1 [Example 59, 1-[1-(2-Ethoxy-4-methoxybenzoyl)-4-piperidinyl]-3,4-dihydrocarbostyril] | 200 | –
COc1ccc(C(=O)N2CCC(N3C(=O)CCc4ccccc43)CC2)c(O)c1 [Example 60, 1-[1-(2-Hydroxy-4-methoxybenzoyl)-4-piperidinyl]-3,4-dihydrocarbostyril] | 200 | –
COc1ccc(C(=O)N2CCC(N3C(=O)CCc4ccccc43)CC2)c(OC(C)=O)c1 [Example 61, 1-[1-(2-Acetoxy-4-methoxybenzoyl)-4-piperidinyl]-3,4-dihydrocarbostyril] | 300 | –
C=CCOc1cc(OC)ccc1C(=O)N1CCC(N2C(=O)CCc3ccccc32)CC1 [Example 62, 1-[1-(2-Allyloxy-4-methoxybenzoyl)-4-piperidinyl]-3,4-dihydrocarbostyril] | 150 | –
COc1ccc(C(=O)N2CCC(N3C(=O)CCc4ccccc43)CC2)c(OCCCO)c1 [Example 63, 1-{1-[2-(3-Hydroxypropoxy)-4-methoxybenzoyl]-piperidinyl}-3,4-dihydrocarbostyril] | 270 | –
COc1ccc(C(=O)N2CCC(N3C(=O)CCc4ccccc43)CC2)c(OCCCOC(C)=O)c1 [Example 64, 1-{1-[2-(3-Acetoxypropoxy)-4-methoxybenzoyl]-piperidinyl}-3,4-dihydrocarbostyril] | 460 | –
COc1ccc(C(=O)N2CCC(N3C(=O)CCc4ccccc43)CC2)c(OCCCOC(N)=O)c1 [Example 65, 1-{1-[2-(3-Carbamoyloxypropoxy)-4-methoxybenzoyl]-4-piperidinyl}-3,4-dihydrocarbostyril] | 270 | –
COCCCOc1cc(OC)ccc1C(=O)N1CCC(N2C(=O)CCc3ccccc32)CC1 [Example 66, 1-{1-[2-(3-Methoxypropoxy)-4-methoxybenzoyl]-piperidinyl}-3,4-dihydrocarbostyril] | 410 | –
COc1ccc(C(=O)N2CCC(N3C(=O)CCc4ccccc43)CC2)c(OCCCC(N)=O)c1 [Example 67, 1-{1-[2-(3-Carbamoylpropoxy)-4-methoxybenzoyl]-4-piperidinyl}-3,4-dihydrocarbostyril] | 470 | –
COc1ccc(C(=O)N2CCC(N3C(=O)CCc4ccccc43)CC2)c(OCCO)c1 [Example 68, 1-{1-[2-(2-Hydroxyethoxy)-4-methoxybenzoyl]-4-piperidinyl}-3,4-dihydrocarbostyril] | 360 | –
COc1ccc(C(=O)N2CCC(N3C(=O)CCc4ccccc43)CC2)c(OCCOC(C)=O)c1 [Example 69, 1-{1-[2-(2-Acetoxyethoxy)-4-methoxybenzoyl]-4-piperidinyl}-3,4-dihydrocarbostyril] | 420 | –
COCCOc1cc(OC)ccc1C(=O)N1CCC(N2C(=O)CCc3ccccc32)CC1 [Example 70, 1-{1-[2-(2-Methoxyethoxy)-4-methoxybenzoyl]-4-piperidinyl}-3,4-dihydrocarbostyril] | 320 | –
O=C(c1ccccc1)c1ccc(C(=O)N2CCC(N3C(=O)CCc4ccccc43)CC2)cc1 [Example 72, 1-[1-(4-Benzoylbenzoyl)-4-piperidinyl]-3,4-dihydrocarbostyril] | 480 | –
CCSc1ccc(C(=O)N2CCC(N3C(=O)CCc4ccccc43)CC2)cc1 [Example 74, 1-[1-(4-Ethylthiobenzoyl)-4-piperidinyl]-3,4-dihydrocarbostyril] | 180 | –
Cc1ccc(C(=O)N2CCC(N3C(=O)CCc4ccccc43)CC2)cc1C [Example 78, 1-[1-(3,4-Dimethylbenzoyl)-4-piperidinyl]-3,4-dihydrocarbostyril] | 400 | –
COc1ccc(C(=O)N2CCC(N3C(=O)CCc4cc(F)ccc43)CC2)c(OC)c1 [Example 79, 6-Fluoro-1-[1-(2,4-dimethoxybenzoyl)-4-piperidinyl]-3,4-dihydrocarbostyril] | 500 | –
COc1cc(SC)ccc1C(=O)N1CCC(N2C(=O)CCc3ccc(F)cc32)CC1 [Example 80, 7-Fluoro-1-[1-(2-methoxy-4-methylthiobenzoyl)-4-piperidinyl]-3,4-dihydrocarbostyril] | 80 | –
COc1ccc(C(=O)N2CCC(N3C(=O)CCc4ccc(C)cc43)CC2)c(OC)c1 [Example 81, 7-Methyl-1-[1-(2,4-dimethoxybenzoyl)-4-piperidinyl]-3,4-dihydrocarbostyril] | 210 | –

Compound | IC50 [nM] | also measured
CCOc1ccc(C(=O)N2CCC(n3c(=O)ccc4ccccc43)CC2)c(OC)c1 [Example 82, 1-[1-(2-Methoxy-4-ethoxybenzoyl)-4-piperidinyl]carbostyril] | – | IC50 (read-out: IC50): 330 nM
O=C1CCc2ccccc2N1C1CCN(C(=O)C23CC4CC(CC(C4)C2)C3)CC1 [Example 83, 1-(1-Tricyclo[3.3.1.1^3,7]decanylcarbonyl-4-piperidinyl)-3,4-dihydrocarbostyril] | 500 | –
COc1cc(SC)ccc1C(=O)N1CCC(N2C(=O)CCc3ccccc32)C1 (stereo not drawn) [Example 84, 1-[1-(2-Methoxy-4-methylthiobenzoyl)-3-pyrrolidinyl]-3,4-dihydrocarbostyril] | – | IC50 [1]: 7100 nM
COc1ccc(N(Cc2ccccc2)C(=O)c2ccc(N3C(=O)CCc4ccccc43)cc2)cc1 [Example 85] | – | IC50 [1]: 3000 nM
COc1ccc(N2CCN(CCCOc3ccc(C(=O)N4CCC(N5C(=O)CCc6ccccc65)CC4)cc3)CC2)cc1 [Example 86, 1-{1-[4-(3-[4-(4-Methoxyphenyl)-1-piperazinyl]propoxy)benzoyl]-4-piperidinyl)-3,4-dihydrocarbostyril] | 570 | –
C=CCOCCCOc1ccc(C(=O)N2CCC(N3C(=O)CCc4ccccc43)CC2)cc1 [Example 87, 1-(1-[4-(3-Allyloxypropoxy)benzoyl]-4-piperidinyl}-3,4-dihydrocarbostyril] | 530 | –
NC(=O)CCCNc1ccc(C(=O)N2CCC(N3C(=O)CCc4ccccc43)CC2)cc1 [Example 88, 1-{1-[4-(3-Carbamoylpropylamino)benzoyl]-4-piperidinyl)-3,4-dihydrocarbostyril] | 1000 | –
CCSc1nccn1-c1ccc(C(=O)N2CCC(N3C(=O)CCc4ccccc43)CC2)cc1 [Example 89, 1-{1-[4-(2-Ethylthioimidazol-1-yl)benzoyl]-4-piperidinyl)-3,4-dihydrocarbostyril] | 1600 | –
C=CCN(C)c1ccc(C(=O)N2CCC(N3C(=O)CCc4ccccc43)CC2)cc1 [Example 90, 1-{1-[4-(N-Allyl-N-methylamino)benzoyl]-4-piperidinyl)-3,4-dihydrocarbostyril] | 1100 | –
O=C(c1ccc(N2CCCC2)cc1)N1CCC(N2C(=O)CCc3ccccc32)CC1 [Example 91, 1-{1-[4-(1-Pyrrolidinyl)benzoyl]-4-piperidinyl}-3,4-dihydrocarbostyril] | 720 | –
CN(CCCOc1ccc(C(=O)N2CCC(N3C(=O)CCc4ccccc43)CC2)cc1)C(=O)c1ccccc1 [Example 92, 1-[1-{4-[3-(N-Methyl-N-benzoylamino)propoxy]benzoyl}-4-piperidinyl)-3,4-dihydrocarbostyril] | 1200 | –
O=C(c1ccc(OCCCN2CCN(c3ccccc3)CC2)cc1)N1CCC(N2C(=O)CCc3ccccc32)CC1 [Example 93, 1-[1-{4-[3-(4-Phenyl-1-piperazinyl)propoxy]benzoyl)-4-piperidinyl]-3,4-dihydrocarbostyril] | 640 | –
O=C(OCCCOc1ccc(C(=O)N2CCC(N3C(=O)CCc4ccccc43)CC2)cc1)c1ccccc1 [Example 94, 1-{1-[4-(3-Benzoyloxypropoxy)benzoyl]-4-piperidinyl}-3,4-dihydrocarbostyril] | 630 | –
CCSCCCOc1ccc(C(=O)N2CCC(N3C(=O)CCc4ccccc43)CC2)cc1 [Example 95, 1-{1-[4-(3-Ethylthiopropoxy)benzoyl]-4-piperidinyl}-3,4-dihydrocarbostyril] | 960 | –
O=C(c1ccc(OCc2ccccc2)cc1)N1CCC(N2C(=O)CCc3ccccc32)CC1 [Example 97, 1-[1-(4-Benzyloxybenzoyl)-4-piperidinyl]-3,4-dihydrocarbostyril] | 1100 | –
O=C(c1ccc(OC2C=CCCC2)cc1)N1CCC(N2C(=O)CCc3ccccc32)CC1 (stereo not drawn) [Example 98, 1-{1-[4-(2-Cyclohexenyloxy)benzoyl]-4-piperidinyl}-3,4-dihydrocarbostyril] | 770 | –
O=C(c1ccc(OC2CCCCC2)cc1)N1CCC(N2C(=O)CCc3ccccc32)CC1 [Example 99, 1-[1-(4-Cyclohexyloxybenzoyl)-4-piperidinyl]3,4-dihydrocarbostyril] | 960 | –
CS(=O)(=O)Oc1ccc(C(=O)N2CCC(N3C(=O)CCc4ccccc43)CC2)cc1 [Example 100, 1-[1-(4-Methylsulfonyloxybenzoyl)-4-piperidinyl]-3,4-dihydrocarbostyril] | 900 | –
O=C(c1ccc(OCC2CO2)cc1)N1CCC(N2C(=O)CCc3ccccc32)CC1 (stereo not drawn) [Example 101, 1-[1-(4-Glycidoxybenzoyl)-4-piperidinyl]-3,4-dihydrocarbostyril] | 1600 | –
CCOC(=O)CN(C)c1cc(OC)ccc1C(=O)N1CCC(N2C(=O)CCc3ccccc32)CC1 [Example 102, 1-{1-[4-Methoxy-2-(N-methyl-N-ethoxycarbonylmethylamino)benzoyl]-4-piperidinyl}-3,4-dihydrocarbostyril] | 1100 | –
COc1ccc(C(=O)N2CCC(N3C(=O)CCc4ccccc43)CC2)c(NC(=O)OCc2ccccc2)c1 [Example 103, 1-[1-(4-Methoxy-2-benzyloxycarbonylaminobenzoyl)-4-piperidinyl]-3,4-dihydrocarbostyril] | 700 | –
